Measured values from patent US6656963B2, “Indole-3-carbinol (I3C) derivatives and methods” (The Regents of the University of California, priority 1997, dated 2003).
“Also recorded” adds a separate entry of the source. Like-named read-outs stand apart in the source and are kept apart here.

What was measured:
[1] = system: MCF7 human breast cancer cells; assay: cells; conditions: for cell proliferation: 48 hours
Method: (§1) Particularly suitable assays for I3C derivatives include evaluating their ability to induce a G1 cell cycle arrest and to inhibit CDK6 protein levels in cultured MCF7 breast cancer cells. For the cell proliferative asssays, we have sucessfully employed several methods that we have previously described for rodent mammary tumor cells (44, 51). Briefly, human MCF7 breast cancer cells are cultured at subconfluency in medium supplemented with 10% fetal bovine serum and […] insulin. […] The incorporation of [^3H]thymidine (in a two hour pulse) into 10% trichloroacetic acid precipitable material are used to monitor and quantitate DNA synthesis and provides a direct measure of the proliferative state of the cells.
(§2) Antiproliferative effects of a combination of I3C and the anti-estrogen tamoxifen on breast cancer cell growth: Estrogen receptor (ER)-containing MCF7 or ER-deficient MDA-MB-231 breast cancer cells were treated for 48 hours with 100 μM I3C or 10 μM tamoxifen alone or with a combination of both reagents, and [^3H]thymidine incorporation used as a measure of cell proliferation.

[2] = system: estrogen receptor-deficient MDA-MB-231 breast cancer cells; assay: [3H]thymidine incorporation in estrogen receptor-deficient breast cancer cells; type: cell-based, human; conditions: for growth inhibitory effect: 48 hours, 100 μM I3C, 10 μM tamoxifen, alone or combined
Method: (§3) I3C effects on estrogen receptor (ER) function was monitored by transient transfection of an ERE-vit-CAT reporter plasmid containing the vitellogenin promoter with three estrogen response elements linked upstream and driving the bacterial chloramphenicol acetyl transferase (CAT) gene.
as §2

estrogen receptor (ER) = assay: ERE-vit-CAT reporter plasmid activity in transiently transfected MCF7 cells; type: cell-based, human; conditions: 48 hours; for effect on ERE-vit-CAT activity: estrogen 100 nM
Method: Cancer cells are also treated with combinations of indole-derivatives and either steroidal or nonsteroidal anti-estrogens, such as tamoxifen, ICI 164384 and raloxifene (39, 52), at both suboptimal and optimal doses to determine the ability of a given I3C derivative to syngerize with the anti-estrogens in the growth suppression response. […] For example, MCF7 cells are transiently transfected with the ERE-vit-CAT reporter plasmid, which contains three estrogen responsive elements, and the cells monitored for changes in estrogen regulated CAT activity. For comparison, the effects of the I3C derivatives on growth of the estrogen-non-responsive MDA-MB-231 breast cell line are examined. […] Therefore, purified indole derivatives is also assayed in MCF7 cells for Ah receptor affinity, activation of Ah receptor binding to DNA, and activation of an Ah receptor-responsive CAT reporter (17).
as §3

MCF-7 cells = assay: Flow cytometry of nuclear DNA content (propidium iodide), cell cycle arrest; type: cell-based, human; conditions: for percentage of MCF7 cells arrested in G1: I3C, tamoxifen alone or combined
Method: as §1
To assess the cell cycle effects of I3C, MCF-7 cells treated with or without 100 μM I3C for 96 hours were hypotonically lysed in the presence of propidium iodide to fluorescently stain the nuclear DNA.
as §2

CDK6 [3] = assay: Western and Northern blot of CDK6 in treated breast cancer cells; type: cell-based, human; conditions: for level of CDK6 protein (Western blot): cells treated with combinations of I3C and/or tamoxifen
Method: For example, I3C derivatives may be analyzed by western blot to determine the level of CDK6 protein produced in treated or untreated human MCF7 breast cancer cells. In particular, cells are treated with varying concentrations, varying times alone or in the presence of particular sets of anti-estrogens; treatment with I3C may be used as a positive control. The cell extracts are then electrophoretically fractionated in SDS polyacrylamide gels, blotted onto nitrocellular membranes, the blotted proteins probed with CDK6 antibodies and the CDK6 protein visualized by autoradiography. […] For example, the levels of the other cyclin dependent kinases (CDK2 and CDK4), cell cycle activators (cyclin D 1, D2, D3 and E) or cell cycle inhibitors (p 15, 16, p21 or p27) that function at discrete times within G1 may be assessed in indole treated or untreated MCF7 breast cancer cells.
To determine the mechanism by which I3C induces the G1 cell cycle arrest of human breast cancer cells, Western blot and Northern blot analyses were utilized to examine whether I3C treatment regulates the protein production and transcript expression of the cyclin dependent protein kinases (CDKs), cyclins and CDK Inhibitor components of the cell cycle that function within the G1 phase.

CDK2 = assay: Western/Northern blot of CDK2 expression; type: cell-based, human; conditions: same conditions as CDK6 reduction
Method: (§4) Our finding that I3C inhibits the protein levels of the CDK6 cell cycle component provides a unique molecular assay to determine the ability of a given I3C derivative to induce a cell cycle arrest of cancer cells. For example, I3C derivatives may be analyzed by western blot to determine the level of CDK6 protein produced in treated or untreated human MCF7 breast cancer cells. In particular, cells are treated with varying concentrations, varying times alone or in the presence of particular sets of anti-estrogens; treatment with I3C may be used as a positive control. The cell extracts are then electrophoretically fractionated in SDS polyacrylamide gels, blotted onto nitrocellular membranes, the blotted proteins probed with CDK6 antibodies and the CDK6 protein visualized by autoradiography. Other G1 acting cell cycle genes maybe examined to confirm that a given I3C derivative is acting similarly to I3C itself. For example, the levels of the other cyclin dependent kinases (CDK2 and CDK4), cell cycle activators (cyclin D 1, D2, D3 and E) or cell cycle inhibitors (p 15, 16, p21 or p27) that function at discrete times within G1 may be assessed in indole treated or untreated MCF7 breast cancer cells. […]

CDK4 = assay: Western/Northern blot of CDK4 expression; type: cell-based, human; conditions: same conditions as CDK6 reduction
Method: as §4

CDK6 [4] = assay: CDK6 protein expression in estrogen receptor negative cell lines; type: cell-based
Method: To determine the mechanism by which I3C induces the G1 cell cycle arrest of human breast cancer cells, Western blot and Northern blot analyses were utilized to examine whether I3C treatment regulates the protein production and transcript expression of the cyclin dependent protein kinases (CDKs), cyclins and CDK Inhibitor components of the cell cycle that function within the G1 phase. […] In particular, CDK6 transcript levels dropped about 30% in 5 hrs and 60% by 15 hours. […] Furthermore, 13C inhibits CDK6 protein expression in estrogen receptor negative cell lines. […] This novel observation provides a basis for a molecular diagnostic assay to determine the sensitivity of a given tumor sample to I3C growth suppression.

p21 cell cycle inhibitor = assay: Western blot of p21 cell cycle inhibitor level; type: cell-based, human; conditions: only after 72-96 hours of treatment
Method: Western blot analysis has shown that I3C stimulates the level of the p21 cell cycle inhibitor by approximately 3-4 fold only after 72-96 hours of indole treatment, which is when the cells begin to display their maximal cell cycle arrest. This response is not likely to initiate the cell cycle arrest, though provides another useful molecular marker to in the examination of tissue biopsies.

Ah (dioxin) receptor = conditions: cited from earlier work
[5] = system: 7,12-dimethyl-benz(α)anthracene (DMBA)-induced mammary tumors; conditions: cited from earlier work
[6] = system: DMBA-induced mammary tumors; conditions: administered prior to and during DMBA treatment; cited from earlier work
[7] = system: methylnitrosourea-induced mammary tumors; conditions: administered prior to and during methylnitrosourea treatment; cited from earlier work
[8] = system: spontaneous mammary tumors; conditions: cited from earlier work
[9] = system: estradiol 2-hydroxylation; conditions: oral, around 500 mg daily for one week, men and women; cited from earlier work
[10] = system: human MCF7 breast cancer cells; conditions: 50 μM, long term treatment (up to six weeks), high density cultures; cited from earlier work
[11] = gastric acid; cited from earlier work
cell growth = assay: Inhibition of cell growth; type: cell-based
cyclin D1 = conditions: estrogen responsive breast cancer cells; cited from earlier work

For `OCc1c[nH]c2ccccc12` [Compound I3C, Indole-3-carbinol], which cell morphology ([1]; 100 μM) is on record?
The cell morphology was “no morphology change”.

And the cell proliferation ([1]; 100 μM)?
The cell proliferation was “near maximally growth arrested”.

What about the cell morphology ([1]; 300 μM) of the same compound?
Its cell morphology is “changed to a more elongated phenotype”.

What about the cell proliferation ([1]; 300 μM) of the same compound?
Its cell proliferation is “maximally inhibited”.

What about the IC50 ([1]; Homo sapiens, MCF7, read-out: half-maximal response, inhibition of [3H]thymidine incorporation) of the same compound?
The IC50 was 30 µM.

And the inhibition at 100 µM ([1]; Homo sapiens, MCF7, read-out: inhibition of MCF7 DNA synthesis ([3H]thymidine incorporation) compared to vehicle controls, 48 hours, 100 μM I3C, 10 μM tamoxifen, alone or combined)?
The inhibition at 100 µM was ~70%.

What about the inhibition at 100 µM ([1]; Homo sapiens, MCF7, read-out: inhibition of [3H]thymidine incorporation, 100 μM, after 72 hours) of the same compound?
The inhibition at 100 µM was 80%.

What about the inhibition at 100 µM ([1]; Homo sapiens, MCF7, read-out: inhibition of [3H]thymidine incorporation, 100 μM, after 96 hours) of the same compound?
Its inhibition at 100 µM is > 90%.

What about the cell death ([1]; prolonged exposure (5 days)) of the same compound?
The cell death was “did not result in any detectable cell death”.

What about the “reversibility of growth suppression” value ([1]; time course of addition and withdrawal) of the same compound?
Its value is “completely reversible”.

And the “rate of [3H]thymidine incorporation after withdrawal” value ([1]; within 48 hours of withdrawal from 48 or 72 hour treated cells)?
The value was “approximately equivalent to untreated cells”.

And the growth inhibitory effect [2]?
Its growth inhibitory effect is “strong growth suppression effect”.

What about the inhibition at 100 µM ([2]; Homo sapiens, MDA-MB-231, 100 μM, read-out: inhibition of proliferation ([3H]thymidine incorporation)) of the same compound?
The inhibition at 100 µM was > 50%.

What about the “effect on ERE-vit-CAT activity” value (estrogen receptor (ER)) of the same compound?
The value was “no effect”.

And the “cells remaining with G2/M DNA content” value (MCF-7 cells; 100 μM, 96 hours)?
The value was “approximately 13%”.

What about the “cells with 2n DNA content (G1 block)” value (MCF-7 cells; 100 μM, 96 hours) of the same compound?
Its value is 75%.

What about the “percentage of MCF7 cells arrested in G1” value (MCF-7 cells) of the same compound?
The value was 75%.

And the “time of indole treatment to reduced level of CDK6 protein” value (CDK6 [3]; 48 hours prior to complete cell cycle arrest)?
The value was ≤ 24 h.

And the “drop of CDK6 transcript levels” value (CDK6 [3]; by 15 hours)?
Its value is ~60%.

And the “level of CDK6 protein (Western blot)” value (CDK6 [3])?
Its value is “reduced the level of CDK6 protein”.

What about the “drop of CDK6 transcript levels” value (CDK6 [3]; in 5 hrs) of the same compound?
The value was “about 30%”.

What about the “effect on CDK2 expression” value (CDK2) of the same compound?
Its value is “no effect”.

And the “effect on CDK4 expression” value (CDK4)?
Its value is “no effect”.

And the CDK6 protein expression (CDK6 [4])?
Its CDK6 protein expression is “inhibits”.

And the “stimulation of p21 level” value (p21 cell cycle inhibitor)?
The value was 3-4 fold.

What about the Kd (Ah (dioxin) receptor) of the same compound?
Its Kd is 27 µM.

And the “reduction of incidence of DMBA-induced mammary tumors” value ([5]; in the diet or by oral intubation prior to carcinogen)?
The value was 70-80%.

And the “reduction of mammary tumor incidence” value [6]?
Its value is ≤ 95%.

What about the “reduction of mammary tumor incidence” value [7] of the same compound?
The value was ≤ 65%.

What about the “reduction of spontaneous mammary tumor incidence and multiplicity” value ([8]; diets with 500 or 2000 p.p.m., both doses) of the same compound?
The value was “ca. 50%”.

What about the tumor latency ([8]; high dose group) of the same compound?
Its tumor latency is “prolonged”.

And the “increase in estradiol 2-hydroxylation” value [9]?
Its value is “approximately 50%”.

What about the estradiol-induced proliferation [10] of the same compound?
The estradiol-induced proliferation was “blocked”.

And the “stability in acidic solution” value [11]?
The value was “extremely unstable”.

Which “suppression of MCF7 cell growth” value ([1]; acid products of I3C) does the source give for `c1ccc2c(Cc3c[nH]c4ccccc34)c[nH]c2c1` [DIM, 3,3′-diindolylmethane] here?
Its value is “do not suppress growth; also recorded: failed to suppress the growth”.

And the Kd (Ah (dioxin) receptor)?
Its Kd is 0.09 µM.

And the “reduction of DMBA-induced mammary tumors” value ([5]; in vivo)?
Its value is “highly effective”.

With `CC(=O)OCc1cn(C(C)=O)c2ccccc12` [N,O-diacetyl-indole-3-carbinol] as the compound, how does the “inhibition of cell growth” value (cell growth) read?
Its value is “particularly effective inhibitors of cell growth”.

Which growth inhibitory effect [2] does the source give for `CC/C(=C(\c1ccccc1)c1ccc(OCCN(C)C)cc1)c1ccccc1` [tamoxifen] here?
Its growth inhibitory effect is “no growth inhibitory effects”.

And the “inhibition of basal ERE-vit-CAT reporter plasmid activity” value (estrogen receptor (ER); 10% fetal bovine serum)?
The value was 70%.

What about the “percentage of MCF7 cells arrested in G1” value (MCF-7 cells) of the same compound?
The value was 70%.

And the “level of CDK6 protein (Western blot)” value (CDK6 [3])?
Its value is “not”.

And the “cyclin D1 levels” value (cyclin D1)?
The value was “reduces”.

With estrogen as the compound, how does the “effect on ERE-vit-CAT activity” value (estrogen receptor (ER)) read?
The value was “stimulated”.
